Laboratory results: US20120316184A1, “NOVEL MICROBICIDES” (SYNGENTA CROP PROTECTION LLC, priority 2010, published 2012)

Columns and labels:
Phytophthora infestans = assay type: in vivo; settings: 200 ppm; tomato leaf disks, inoculated 1 day after application, assessed 5-7 days after application, vs untreated
[1] = system: Phaeosphaeria nodorum (Septoria nodorum); assay: Fungicidal activity against Phaeosphaeria nodorum (Septoria nodorum) / wheat / leaf disc preventative (glume blotch); assay type: in vivo; settings: Parastagonospora nodorum, foliar, wheat leaf segments cv. Kanzler, inoculated 2 days after application, assessed 5-7 days after application, vs untreated, read-out: disease control
Description: Fungicidal Activity Against Phaeosphaeria nodorum (Septoria nodorum)/Wheat/Leaf Disc Preventative (Glume Blotch) Wheat leaf segments cv. Kanzler were placed on agar in a multiwell plate (24-well format) and sprayed with the formulated test compound diluted in water. The leaf disks were inoculated with a spore suspension of the fungus 2 days after application. The inoculated test leaf disks were incubated at 20° C. and 75% rh under a light regime of 12 h light/12 h darkness in a climate cabinet and the activity of a compound was assessed as percent disease control compared to untreated when an appropriate level of disease damage appears in untreated check leaf disks (5-7 days after application).

[2] = system: Glomerella lagenarium (Colletotrichum lagenarium); assay: Fungicidal activity against Glomerella lagenarium (Colletotrichum lagenarium) / liquid culture (anthracnose); assay type: cell-based; settings: Colletotrichum orbiculare, liquid culture (PDB), inhibition of growth measured photometrically 3-4 days after application, read-out: disease control
Description: (§1) Fungicidal Activity Against Glomerella lagenarium (Colletotrichum lagenarium)/Liquid Culture (Anthracnose) Conidia of the fungus from cryogenic storage were directly mixed into nutrient broth (PDB potato dextrose broth). After placing a (DMSO) solution of test compound into a microtiter plate (96-well format), the nutrient broth containing the fungal spores was added. The test plates were incubated at 24° C. and the inhibition of growth was measured photometrically 3-4 days after application.

Gaeumannomyces graminis = assay: Fungicidal activity against Gaeumannomyces graminis / liquid culture (take-all of cereals); assay type: cell-based; settings: liquid culture (PDB), inhibition of growth determined photometrically 4-5 days after application, read-out: disease control
Description: (§2) Fungicidal Activity Against Gaeumannomyces graminis/Liquid Culture (Take-all of Cereals) Mycelial fragments of the fungus from cryogenic storage were directly mixed into nutrient broth (PDB potato dextrose broth). After placing a (DMSO) solution of test compound into a microtiter plate (96-well format), the nutrient broth containing the fungal spores is added. The test plates were incubated at 24° C. and the inhibition of growth was determined photometrically 4-5 days after application.

[3] = system: Mycosphaerella graminicola (Septoria tritici); assay: Fungicidal activity against Mycosphaerella graminicola (Septoria tritici) / liquid culture (Septoria blotch); assay type: cell-based; settings: Zymoseptoria tritici, liquid culture (PDB), inhibition of growth determined photometrically 4-5 days after application, read-out: disease control
Description: as §2, with “Mycosphaerella graminicola (Septoria tritici)/Liquid” for “Gaeumannomyces graminis/Liquid”, “(Septoria Blotch) Conidia” for “(Take-all of Cereals) Mycelial fragments”, “was” for “is”

[4] = system: Monographella nivalis (Microdochium nivale); assay: Fungicidal activity against Monographella nivalis (Microdochium nivale) / liquid culture (foot rot cereals); assay type: cell-based; settings: liquid culture (PDB), inhibition of growth determined photometrically 4-5 days after application, read-out: disease control
Description: as §2, with “Monographella nivalis (Microdochium nivale)/Liquid” for “Gaeumannomyces graminis/Liquid”, “(Foot Rot” for “(Take-all of”, “Conidia” for “Mycelial fragments”, “was” for “is”

[5] = system: Mycosphaerella arachidis (Cercospora arachidicola); assay: Fungicidal activity against Mycosphaerella arachidis (Cercospora arachidicola) / liquid culture (early leaf spot); assay type: cell-based; settings: liquid culture (PDB), inhibition of growth determined photometrically 4-5 days after application, read-out: disease control
Description: as §2, with “Mycosphaerella arachidis (Cercospora arachidicola)/Liquid” for “Gaeumannomyces graminis/Liquid”, “(Early Leaf Spot) Conidia” for “(Take-all of Cereals) Mycelial fragments”, “was” for “is”

[6] = system: Puccinia recondita f. sp. tritici; assay: Fungicidal activity against Puccinia recondita f. sp. tritici / wheat / leaf disc preventative (brown rust); assay type: in vivo; settings: foliar, wheat leaf segments cv. Kanzler, inoculated 1 day after application, assessed 7-9 days after application, vs untreated, read-out: disease control
Description: Fungicidal Activity Against Puccinia recondita f. sp. tritici/Wheat/Leaf Disc Preventative (Brown Rust) Wheat leaf segments cv. Kanzler were placed on agar in multiwell plates (24-well format) and sprayed with the formulated test compound diluted in water. The leaf disks were inoculated with a spore suspension of the fungus 1 day after application. The inoculated leaf segments were incubated at 19° C. and 75% rh under a light regime of 12 h light/12 h darkness in a climate cabinet and the activity of a compound was assessed as percent disease control compared to untreated when an appropriate level of disease damage appears in untreated check leaf segments (7-9 days after application).

Pyrenophora teres = assay: Fungicidal activity against Pyrenophora teres / barley / leaf disc preventative (net blotch); assay type: in vivo; settings: foliar, barley leaf segments cv. Hasso, inoculated 2 days after application, assessed 5-7 days after application, vs untreated, read-out: disease control
Description: Fungicidal Activity Against Pyrenophora teres/Barley/Leaf Disc Preventative (Net Blotch) Barley leaf segments cv. Hasso were placed on agar in a multiwell plate (24-well format) and sprayed with the formulated test compound diluted in water. The leaf […] inoculated with a spore suspension of the fungus 2 days after application. The inoculated leaf segments were incubated at 20° C. and 65% rh under a light regime of 12 h light/12 h darkness in a climate cabinet and the activity of a compound was assessed as disease control compared to untreated when an appropriate level of disease damage appears in untreated check leaf segments (5-7 days after application).

[7] = system: Botryotinia fuckeliana (Botrytis cinerea); assay: Fungicidal activity against Botryotinia fuckeliana (Botrytis cinerea) / liquid culture (gray mould); assay type: cell-based; settings: liquid culture (Vogels broth), inhibition of growth determined photometrically 3-4 days after application, read-out: disease control
Description: as §1, with “Botryotinia fuckeliana (Botrytis cinerea)/Liquid” for “Glomerella lagenarium (Colletotrichum lagenarium)/Liquid”, “(Gray Mould)” for “(Anthracnose)”, “(Vogels” for “(PDB potato dextrose”, “determined” for “measured”

| Compound | disease control (Phytophthora infestans) | pest or weed control at 200 ppm [1] [%] | inhibition of growth at 200 ppm [2] [%] | inhibition of growth at 200 ppm (Gaeumannomyces graminis) [%] | inhibition of growth at 200 ppm [3] [%] | inhibition of growth at 200 ppm [4] [%] | inhibition of growth at 200 ppm [5] [%] | pest or weed control at 200 ppm [6] [%] | pest or weed control at 200 ppm (Pyrenophora teres) [%] | inhibition of growth at 200 ppm [7] [%] |
| --- | --- | --- | --- | --- | --- | --- | --- | --- | --- | --- |
| c1ccc(Cc2cccc(-c3ncc4ccsc4n3)n2)cc1 [Compound T3.1.31, 2-(6-benzyl-pyridin-2-yl)-thieno[2,3-d]pyrimidine] | at least 80% | – | – | – | – | – | – | – | – | – |
| Clc1nc(-c2cccc(Cc3ccccc3)n2)nc2sccc12 [Compound T3.1.33, 2-(6-benzyl-pyridin-2-yl)-4-chloro-thieno[2,3-d]pyrimidine] | – | ≥ 80 | ≥ 80 | ≥ 80 | ≥ 80 | ≥ 80 | ≥ 80 | ≥ 80 | – | – |
| COc1nc(-c2cccc(Cc3ccccc3)n2)nc2sccc12 [Compound T3.1.35, 2-(6-benzyl-pyridin-2-yl)-4-methoxy-thieno[2,3-d]pyrimidine] | – | ≥ 80 | ≥ 80 | ≥ 80 | ≥ 80 | ≥ 80 | ≥ 80 | – | – | – |
| Cc1ccc(-c2ncc3cccnc3n2)nc1-c1ccccc1 [Compound T10.1.6, 2-(5-methyl-6-phenyl-pyridin-2-yl)-pyrido[2,3-d]pyrimidine] | – | ≥ 80 | ≥ 80 | ≥ 80 | ≥ 80 | ≥ 80 | ≥ 80 | ≥ 80 | ≥ 80 | ≥ 80 |
| CCOc1nc(-c2cccc(Cc3ccccc3)n2)nc2sccc12 [Compound T15.1] | – | – | ≥ 80 | ≥ 80 | ≥ 80 | ≥ 80 | ≥ 80 | ≥ 80 | – | – |
| c1ccc(Cc2cccc(-c3ncc4c5c(sc4n3)CCC5)n2)cc1 [Compound T15.2] | – | – | – | ≥ 80 | – | – | ≥ 80 | – | – | – |
| Cc1sc2nc(-c3cccc(Cc4ccccc4)n3)ncc2c1C [Compound T15.4] | – | – | – | ≥ 80 | – | ≥ 80 | ≥ 80 | – | ≥ 80 | ≥ 80 |
| Cc1cc(F)ccc1-c1cccc(-c2nc(O)c3ccsc3n2)n1 [Compound T15.5] | – | – | – | ≥ 80 | – | – | – | – | – | ≥ 80 |
| Cc1ccc(C)c(-c2cccc(-c3nc(O)c4ccsc4n3)n2)c1 [Compound T15.7] | – | – | – | ≥ 80 | – | ≥ 80 | – | – | – | – |
| COc1nc(-c2cccc(-c3cc(C)ccc3C)n2)nc2sccc12 [Compound T15.8] | – | – | – | ≥ 80 | ≥ 80 | – | ≥ 80 | – | ≥ 80 | – |
| COc1nc(-c2cccc(C#CC3CC3)n2)nc2sccc12 [Compound T15.9] | – | – | – | ≥ 80 | – | ≥ 80 | ≥ 80 | – | – | – |
| Cc1cccc(-c2nc(-c3ccccc3)c3ncccc3n2)n1 [Compound T15.10] | – | ≥ 80 | ≥ 80 | ≥ 80 | ≥ 80 | – | ≥ 80 | ≥ 80 | ≥ 80 | ≥ 80 |
| COc1cccc(-c2nc(-c3cccc(C)n3)nc3sccc23)c1 [Compound T15.11] | – | ≥ 80 | ≥ 80 | ≥ 80 | ≥ 80 | ≥ 80 | ≥ 80 | ≥ 80 | ≥ 80 | ≥ 80 |
| Cc1cccc(-c2nc(-c3cccc(C)n3)nc3sccc23)c1 [Compound T15.12] | – | ≥ 80 | ≥ 80 | ≥ 80 | ≥ 80 | ≥ 80 | ≥ 80 | ≥ 80 | ≥ 80 | ≥ 80 |
| Cc1cccc(-c2nc(-c3ccccc3C)c3ccsc3n2)n1 [Compound T15.13] | – | ≥ 80 | ≥ 80 | ≥ 80 | ≥ 80 | – | ≥ 80 | – | – | ≥ 80 |
| Cc1cccc(-c2nc(-c3ccccc3Cl)c3ccsc3n2)n1 [Compound T15.14] | – | ≥ 80 | ≥ 80 | ≥ 80 | ≥ 80 | – | ≥ 80 | – | ≥ 80 | ≥ 80 |
| Cc1cccc(-c2nc(-c3ccc(Cl)cc3)c3ccsc3n2)n1 [Compound T15.15] | – | ≥ 80 | ≥ 80 | ≥ 80 | ≥ 80 | ≥ 80 | ≥ 80 | ≥ 80 | ≥ 80 | ≥ 80 |
| c1ccc(Cc2cccc(-c3ncc4ccsc4n3)n2)cc1 [Compound T15.16] | – | ≥ 80 | ≥ 80 | ≥ 80 | ≥ 80 | ≥ 80 | ≥ 80 | ≥ 80 | ≥ 80 | ≥ 80 |
